pIC50: −log10 of the molar value.

What all share (assay type): in vitro ADME
A short description of series [1]: Microsomal metabolism stability, human. Conditions: human liver microsomes 0.5 mg/mL, 1 μM, NADPH, 37° C. The protocol: The microsomal metabolism stability of the test compound (Embodiment 6) in three species was determined. 1 μM test compound and microsomes (0.5 mg/mL) supplemented with NADPH regeneration system were incubated at 37° C. The positive controls were testosterone (3A4 substrate), propafenone (2D6 substrate) and diclofenac (2C9 substrate), respectively. The positive control and microsomes (0.5 mg/mL) supplemented with NADPH regeneration system were incubated at 37° C. Samples at different time points (0, 5, 10, 20, 30, and 60 minutes) were mixed directly with cold acetonitrile containing an internal standard to terminate the reaction. The compound and microsomes were incubated for 60 minutes without the NADPH regeneration system. One parallel was set at each time point (n=1). The samples were analyzed by LC/MS/MS. The concentration of the compound was indicated by the ratio of the peak area of the analyte to the peak area of the internal standard.
Background: Microsomes from liver hold many membrane-bound enzymes, among them those of drug oxidation.

Series [2] in a line: Plasma protein binding rate, human plasma. Conditions: plasma of human, dialysis 4 hours at 37° C. As to the method:
The protein binding rate of Embodiment 6 in the plasma of human, CD-1 mouse and SD rat was determined, 796 μL of blank plasma was taken from human, CD-1 mice and SD rats, and 4 μL of test compound working solution (400 μM) or warfarin working solution (400 μM) was added to achieve a final concentration of the test compound and the warfarin in plasma samples of 2 μM. The samples were mixed thoroughly. The final concentration of organic phase DMSO was 0.5%, 50 μL of the test compound and warfarin plasma sample were transferred into sample receiving plates (three parallels), and a relative volume of corresponding blank plasma or buffer was immediately added, ensuring that the final volume of each sample well was 100 μL, and the volume ratio of plasma to dialysis buffer was 1:1. 400 μL of stop solution was added to these samples, which was used as a T0 sample for the determination of recovery and stability. […] The protein binding rate and the recovery rate were calculated by the formulas: % Protein unbinding rate (%)=100*Drug concentration through the dialysis membrane/drug concentration not through the dialysate: Protein binding rate (%)=100-% protein unbinding rate: % Recovery=100*(Drug concentration through the dialysis membrane+Drug concentration not through the dialysate)/Total drug concentration before undialysis. Protein binding rate and recovery rate were calculated.

In another series the target is T1, CYP1A2 (Homo sapiens, UniProt P05177).
T1 construct: from tissue; host or cells: human liver microsomes
T1 sequence (P05177 1-516): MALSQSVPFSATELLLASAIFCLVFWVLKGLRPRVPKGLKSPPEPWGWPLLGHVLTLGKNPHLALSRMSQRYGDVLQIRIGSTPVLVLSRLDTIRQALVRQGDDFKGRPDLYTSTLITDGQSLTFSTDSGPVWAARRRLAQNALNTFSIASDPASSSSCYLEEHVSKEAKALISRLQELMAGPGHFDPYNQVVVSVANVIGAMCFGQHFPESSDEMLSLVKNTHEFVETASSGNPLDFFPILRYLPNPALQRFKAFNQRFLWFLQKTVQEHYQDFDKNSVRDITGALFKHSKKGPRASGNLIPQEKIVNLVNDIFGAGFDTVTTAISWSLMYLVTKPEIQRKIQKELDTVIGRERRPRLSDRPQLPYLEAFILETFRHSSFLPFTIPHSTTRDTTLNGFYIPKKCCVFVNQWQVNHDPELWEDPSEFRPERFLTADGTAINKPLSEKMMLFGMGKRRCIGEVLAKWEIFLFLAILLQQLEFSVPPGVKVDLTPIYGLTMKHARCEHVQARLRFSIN
The series is described as follows: Inhibition of cytochrome P450 isoenzyme in human liver microsomes. The protocol: (§1) The inhibitory effect of the test compound on different subtypes of human cytochrome P450 isoenzyme was determined. Working solutions of the test compound, standard inhibitor (100×final concentration) and a mixed substrate were prepared. Microsomes frozen in a −80° C. refrigerator were thawed. 2 μL of test compound and the standard inhibitor solution were added into the corresponding wells, while 2 μL of the corresponding solvent was added into the non-inhibitor control well (NIC) and the blank control well (Blank). 20 μL of the mixed substrate solution was added into the corresponding wells except for the Blank well (20 μL of PB was added into the Blank well). Human liver microsomes solution was prepared (it was put back to the refrigerator immediately after use and the date was marked) and 158 μL of human liver microsomes solution were added into all of the wells immediately. The sample plate was pre-incubated under a 37° C. water bath, during which coenzyme factor (NADPH) solution was prepared immediately. After 10 minutes, 20 μL of coenzyme factor (NADPH) solution was added into all of the wells. After the sample plate was shaken evenly, it was incubated under a 37° C. water bath for 10 minutes. 400 μL of cold acetonitrile solution (the internal standard was 200 ng/mL Tolbutamide and Labetalol) was added to terminate the reaction at the corresponding time. After the sample plate was well-mixed, it was centrifuged at 4,000 rpm for 20 minutes to precipitate the protein. 200 μL of the supernatant was collected and added to 100 μL of water, and subjected to LC/MS/MS measurement after being shaken evenly.

A further series deals with T2, CYP3A4-M (Homo sapiens, UniProt P08684).
T2 construct: from tissue; host or cells: human liver microsomes
T2 sequence (P08684 whole entry): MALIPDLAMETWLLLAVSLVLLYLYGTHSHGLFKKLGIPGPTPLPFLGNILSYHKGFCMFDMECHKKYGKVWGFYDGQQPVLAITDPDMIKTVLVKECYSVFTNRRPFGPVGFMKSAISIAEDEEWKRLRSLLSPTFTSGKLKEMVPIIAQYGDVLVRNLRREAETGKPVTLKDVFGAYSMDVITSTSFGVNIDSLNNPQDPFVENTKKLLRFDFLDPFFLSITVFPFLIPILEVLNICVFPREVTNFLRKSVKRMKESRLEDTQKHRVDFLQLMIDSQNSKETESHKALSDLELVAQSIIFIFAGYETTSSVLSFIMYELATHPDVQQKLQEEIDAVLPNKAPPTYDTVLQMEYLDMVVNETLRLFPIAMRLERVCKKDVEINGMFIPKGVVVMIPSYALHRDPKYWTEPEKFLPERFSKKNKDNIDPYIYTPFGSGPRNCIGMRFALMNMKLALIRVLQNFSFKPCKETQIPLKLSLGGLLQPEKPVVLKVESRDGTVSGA
Described as above. As to the method:
as §1

The target in the next series is T3, CYP2D6 (Homo sapiens, UniProt P10635).
T3 construct: from tissue; host or cells: human liver microsomes
T3 sequence (P10635 whole entry): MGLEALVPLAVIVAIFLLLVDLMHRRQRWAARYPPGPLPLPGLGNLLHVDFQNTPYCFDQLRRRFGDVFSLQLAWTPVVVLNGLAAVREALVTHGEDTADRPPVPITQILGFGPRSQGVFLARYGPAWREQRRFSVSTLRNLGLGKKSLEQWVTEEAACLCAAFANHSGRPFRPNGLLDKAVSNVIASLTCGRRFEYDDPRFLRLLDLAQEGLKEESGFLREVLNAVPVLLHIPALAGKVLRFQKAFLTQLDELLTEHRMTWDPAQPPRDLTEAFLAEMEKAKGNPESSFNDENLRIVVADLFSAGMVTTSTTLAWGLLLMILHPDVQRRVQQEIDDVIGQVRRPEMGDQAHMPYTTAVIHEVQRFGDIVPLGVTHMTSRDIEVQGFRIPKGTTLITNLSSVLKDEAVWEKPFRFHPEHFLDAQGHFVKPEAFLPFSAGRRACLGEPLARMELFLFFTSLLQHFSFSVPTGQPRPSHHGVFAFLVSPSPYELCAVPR
The series is described as above. The protocol:
as §1

The next series addresses T4, CYP2C19 (Homo sapiens, UniProt P33261).
T4 construct: from tissue; host or cells: human liver microsomes
Described as above. The protocol: as §1

The target in the next series is T5, CYP2C9 (Homo sapiens, UniProt P11712).
T5 construct: from tissue; host or cells: human liver microsomes
T5 sequence (P11712 whole entry): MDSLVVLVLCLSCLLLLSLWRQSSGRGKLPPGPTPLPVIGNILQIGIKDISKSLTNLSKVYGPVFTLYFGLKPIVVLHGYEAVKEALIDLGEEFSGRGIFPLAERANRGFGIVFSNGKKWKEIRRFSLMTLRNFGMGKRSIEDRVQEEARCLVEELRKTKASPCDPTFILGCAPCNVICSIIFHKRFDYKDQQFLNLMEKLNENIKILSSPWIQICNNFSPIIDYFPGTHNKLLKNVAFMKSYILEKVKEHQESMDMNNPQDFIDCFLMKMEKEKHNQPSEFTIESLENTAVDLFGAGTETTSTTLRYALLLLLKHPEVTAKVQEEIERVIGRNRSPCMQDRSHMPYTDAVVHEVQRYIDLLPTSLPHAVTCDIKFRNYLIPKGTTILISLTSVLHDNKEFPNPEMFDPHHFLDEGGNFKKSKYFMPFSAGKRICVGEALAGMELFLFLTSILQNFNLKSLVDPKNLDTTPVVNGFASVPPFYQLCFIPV
The series is described as above. The protocol: as §1

T4 sequence (P33261 whole entry): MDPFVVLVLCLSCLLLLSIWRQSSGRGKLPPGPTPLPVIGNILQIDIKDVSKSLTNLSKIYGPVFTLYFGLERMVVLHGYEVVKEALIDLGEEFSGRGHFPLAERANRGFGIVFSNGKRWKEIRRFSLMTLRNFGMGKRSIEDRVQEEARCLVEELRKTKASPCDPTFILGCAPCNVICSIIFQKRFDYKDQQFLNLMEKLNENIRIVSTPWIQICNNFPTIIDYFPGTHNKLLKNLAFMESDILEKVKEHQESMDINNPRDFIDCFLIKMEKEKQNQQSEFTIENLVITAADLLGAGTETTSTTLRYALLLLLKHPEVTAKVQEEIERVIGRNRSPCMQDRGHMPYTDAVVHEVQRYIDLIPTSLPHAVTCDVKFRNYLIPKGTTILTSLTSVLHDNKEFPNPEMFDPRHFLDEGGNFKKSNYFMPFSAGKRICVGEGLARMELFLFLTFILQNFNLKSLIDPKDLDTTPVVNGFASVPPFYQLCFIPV

A word on the fraction unbound: it is the share of the substance not bound to proteins or other matrix. A word on the pIC50: it is the IC50 on a negative log10 scale, so that one unit is a factor of ten. Low readings indicate a high IC50, high ones a low IC50. Take `COCCCOc1cc2c(cc1OC)-c1cc(=O)c(C(=O)O)cn1[C@H](C(C)(C)C)CO2` [Embodiment 6]: the “remaining ratio at T=60 min” value in series [1] was determined as 109.1%. In series [2], this compound showed a fraction unbound at 4 h, 2 μM of 0.443. Also, the negative logarithm of the IC50 (pIC50) on CYP1A2, against CYP3A4-M, against CYP2D6, on CYP2C19 and against CYP2C9 was < 4.30 throughout.

These data come from patent US20200197409A1, “HEPATITIS B VIRUS SURFACE ANTIGEN INHIBITOR” (FUJIAN COSUNTER PHARMACEUTICAL CO., LTD., priority 2017, published 2020).
